Measurements as given in patent US8748456B2, “Pyrazolo piperidine derivatives as NADPH oxidase inhibitors” (Genkyotex SA, priority 2010, dated 2014).

What was measured:
Assay type in all cases: cell-based, human
NOX [1] = system: T1, NOX; assay: Amplex Red measurement of NOX activity (extracellular hydrogen peroxide) in DMSO-differentiated HL60 cells; conditions: DPI 10 μM, NOX activity as % of the activity in control cells, 'usually'
T1 construct: rows headed: Residual activity of DPI-treated cells; other: Amplex Red; DPI 10 μM; NOX activity as % of the activity in control cell
Description: Human acute myeloid leukemia cell line HL-60 was cultured in RPMI 1640 (Invitrogen) supplemented with 10% heat-inactivated calf serum, 2 mM glutamine, 100 U/mL penicillin (Sigma), and 100 μg streptomycin (Sigma) at 37° C. under a humidified atmosphere of 5% CO2. HL60 differentiation to the neutrophil phenotype was triggered by adding Me2SO (final concentration 1.25% v/v for 6 days) to the culture medium.
Extracellular hydrogen peroxide was measured using Amplex UltraRed (Molecular Probes). Cells were trypsinized (1× Trypsin-EDTA), collected by centrifugation, and resuspended in HBSS supplemented with 1% glucose. Cells were seeded into black 96-well plates at a density of 50′000 cells in 200 μl testing buffer (HBSS 1% glucose containing 0.005 U/mL horseradish peroxidase (Roche) and 50 μM Amplex Red in the presence or absence of compounds according to the invention. As a control, DPI was included at a final concentration of 10 μM The plates were placed in the fluorescent Optima Fluorescent plate reader and kept at 37° C. during 20 min. Fluorescence was measured for […] with excitation and emission wavelengths of 544 nm and 590 nm respectively. NOX activities were expressed as % of the activity in control cells. […]
The Table 2 below summarizes the percentage of inhibition of NOX activity as measured by Amplex Red using DMSO-differentiated HL60 cells as described above: […]

NOX [2] = assay: Nitroblue tetrazolium (NBT) test of intracellular and extracellular superoxide in cells; conditions: DPI 10 μM, NOX activity as % of the activity in control cells, 'usually'
Description: Intracellular and extracellular superoxide was measured by a colorimetric technique using a quantitative nitroblue tetrazolium (NBT) test. SOD-inhibitable conversion of NBT to formazan, a fine blue precipitate, in the presence of superoxide anion was measured using Fluostar Optima spectrometer (BMG labtech). Following incubation with appropriate stimuli, cells were trypsinized (1× Trypsin-EDTA), collected by centrifugation, and washed with PBS to remove medium. 5×10^5 cells were plated on 48-well plates and incubated in Hank's balanced salt solution containing 0.5 mg/mL NBT with or without 800 U/mL SOD in the presence or absence of compounds according to the invention. As a control, DPI was included at a final concentration of 10 μM. After 2.5 h, cells were fixed and washed with methanol to remove non reduced NBT. The reduced formazan was then dissolved in 230 μl of 2M potassium hydroxide and in 280 μl of dimethylsulfoxide. The absorption was measured at 630 nm. For calculation, the absorbance at 630 nm was normalized for each individual well. The mean of the four blank values was subtracted from each corrected value for each time point. NOX activities were expressed as % of the activity in control cells. Residual activity of DPI-treated cells was usually <10%.

NOX [3] = system: T2, NOX; assay: H2DCF-DA (DCF fluorescence) in HUVEC stimulated with TGF-β; conditions: NOX activity as % of the activity in control cells, 'usually'
T2 construct: rows headed: Residual activity of DPI-treated cells; other: H2DCF-DA, HUVEC + TGF-β; NOX activity as % of the activity in control ce
Description: HUVEC are cultured in endothelial basal medium supplemented with hydrocortisone (1 μg/mL, CalbioChem), bovine brain extract (12 μg/mL), gentamicin (50 μg/mL, CalbioChem), amphotericin B (50 ng/mL, CalBioChem EGF (10 ng/mL, and 10% FCS until the fourth passage. When the fifth passage was started, cells were cultured with a lower concentration of FCS (2%) in the absence of EGF, if not indicated otherwise. All experiments were done with cells of the fifth passage. The cells were incubated with OxLDL (oxidized low-density lipoprotein) or its buffer as control for 24 h, before detection of O2^− formation.
HUVEC were plated on coverslips and made quiescent overnight in 0.5% BSA before stimulation with TGF-β. Cells were loaded for 10 minutes with 5 μM CM-H2DCFDA in phenol-red-free medium in the dark and then treated with TGF-β (R&D Systems) in the presence or absence of compounds according to the invention. Cells were then visualized by immunofluorescence microscopy after fixation and staining of the nuclei with DAPI or examined live using confocal microscopy. DCF fluorescence was visualized at an excitation wavelength of 488 nm and emission at 515 to 540 nm. […] For calculation, the absorbance at […] was normalized to absorbance at […] for each individual well. […] NOX activities were expressed as % of the activity in control cells. […]

NOX [4] = assay: Chemiluminescence (luminol) measurement of ROS in cells; conditions: NOX activity as % of the activity in control cells, 'usually'
Description: ROS was measured using the chemiluminescent probe luminol. Cells were cultured and plated as for Amplex Red except that the Amplex Red agent was replaced by 10 μg/mL luminol (Sigma 09235). Light emission was recorded continuously at 37° C. for 60 minutes using the luminescence function of the FluoStar Optima fluorescent plate reader. The mean of the four blank values was subtracted from each corrected value for each time point. NOX activities were expressed as % of the activity in control cells. Residual activity of DPI-treated cells was usually <10%.

Measured: Residual activity of DPI-treated cells

c1ccc([I+]c2ccccc2)cc1 [DPI, Diphenyl-iodonium]
< 10%: all assays above
